{
  "source": "ChEMBL document CHEMBL4145503",
  "about": "“Design, synthesis and in vitro biological evaluation of novel [1,2,3]triazolo[4,5-d]pyrimidine derivatives containing a thiosemicarbazide moiety” (Eur J Med Chem, 2018)",
  "format_in_all_cases": "functional, cell-based",
  "key": {"MGC-803": {"test_system": "MGC-803", "assay": "Antiproliferative activity against human MGC803 cells after 72 hrs by MTT assay", "details": "MGC-803, 72 h"}, "PC-3": {"test_system": "PC-3", "assay": "Antiproliferative activity against human PC3 cells after 72 hrs by MTT assay", "details": "PC-3, 72 h"}, "NCI-H1650": {"test_system": "NCI-H1650", "assay": "Antiproliferative activity against human NCI-H1650 cells after 72 hrs by MTT assay", "details": "NCI-H1650, 72 h"}},
  "data": [
    {"smiles": "CCCSc1nc(NNC(=S)NCc2ccccc2)c2nnn(CCc3cccs3)c2n1", "values": [
      {"measurement": "IC50", "setting": "MGC-803", "result": 41.1, "unit": "µM"},
      {"measurement": "IC50", "setting": "PC-3", "result": "> 64", "unit": "µM"},
      {"measurement": "IC50", "setting": "NCI-H1650", "result": "> 64", "unit": "µM"}
    ]},
    {"smiles": "O=c1[nH]cc(F)c(=O)[nH]1", "note": "[FLUOROURACIL]", "values": [
      {"measurement": "IC50", "setting": "MGC-803", "result": 7.86, "unit": "µM"},
      {"measurement": "IC50", "setting": "PC-3", "result": 27.6, "unit": "µM"},
      {"measurement": "IC50", "setting": "NCI-H1650", "result": 14.6, "unit": "µM"}
    ]},
    {"smiles": "CCCSc1nc(NNC(=S)NCc2ccccc2)c2nnn(CCc3c[nH]c4ccccc34)c2n1", "values": [
      {"measurement": "IC50", "setting": "MGC-803", "result": 30.3, "unit": "µM"},
      {"measurement": "IC50", "setting": "PC-3", "result": 15.3, "unit": "µM"},
      {"measurement": "IC50", "setting": "NCI-H1650", "result": "> 64", "unit": "µM"}
    ]}
  ]
}
